Experimental findings from ChEMBL document CHEMBL1127956, “Tetrahydroisoquinoline as a phenylalanine replacement in renin inhibitors” (Bioorg Med Chem Lett, 1994) are described below.

Molecules are shown by their SMILES. pIC50: −log10 of the molar value.

The first experiment deals with T1, Renin (Homo sapiens) (UniProt P00797).
T1 sequence (whole entry): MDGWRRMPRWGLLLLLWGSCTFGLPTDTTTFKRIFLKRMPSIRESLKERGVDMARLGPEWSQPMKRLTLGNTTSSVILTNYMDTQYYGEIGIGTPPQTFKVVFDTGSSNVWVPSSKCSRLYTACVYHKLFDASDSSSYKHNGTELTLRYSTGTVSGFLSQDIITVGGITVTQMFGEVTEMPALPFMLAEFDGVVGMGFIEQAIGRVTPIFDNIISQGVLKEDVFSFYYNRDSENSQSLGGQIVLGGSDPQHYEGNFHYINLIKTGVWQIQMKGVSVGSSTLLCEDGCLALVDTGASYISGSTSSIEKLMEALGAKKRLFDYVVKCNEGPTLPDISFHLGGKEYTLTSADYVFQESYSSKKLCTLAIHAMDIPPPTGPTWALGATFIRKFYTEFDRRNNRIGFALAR
Kind of experiment: In vitro inhibitory activity against monkey plasma renin was determined at 10e-6 M. It is filed as cell-free. To be noted: Cercopithecidae, target entry is the homologue from another species.
One may read the inhibition as the drop in the measured response relative to a control, in per cent. With `CC(C)C[C@H](O)[C@H](O)[C@H](CC1CCCCC1)NC(=O)CCC(O)[C@@H]1Cc2ccccc2CN1C(=O)OC(C)(C)C` (stereo partly specified), the inhibition was determined as 0%. Still for that read-out and setting: then `CC(C)C[C@H](O)[C@H](O)[C@H](CC1CCCCC1)NC(=O)CNC(=O)[C@@H]1Cc2ccccc2CN1C(=O)OC(C)(C)C`, with 11.9%; and `CC(C)C[C@H](O)[C@H](O)[C@H](CC1CCCCC1)NC(=O)CCC(=O)[C@@H]1Cc2ccccc2CN1C(=O)OC(C)(C)C`, with 9.8%.

The target of the next experiment is T2, Renin (Homo sapiens, UniProt P00797).
T2 sequence (P00797 whole entry): T1 sequence (whole entry)
Briefly: In vitro inhibitory activity against monkey plasma renin. Format: cell-free, Cercopithecidae. To be noted: target entry is the homologue from another species.
Broadly, the pIC50 is the IC50 on a negative log10 scale, so that one unit is a factor of ten. As for `CC(C)C[C@H](O)[C@H](O)[C@H](CC1CCCCC1)NC(=O)CNC(=O)[C@H](Cc1ccccc1)NS(=O)(=O)N1CCOCC1`, the pIC50 was 8.44. Regarding `C=CC[C@H](NC(=O)[C@H](Cc1ccccc1)NC(=O)OC(C)(C)C)C(=O)N[C@@H](CC1CCCCC1)[C@@H](O)[C@@H](O)CC(C)C`, the pIC50 was 9.38. `C=CC[C@H](NC(=O)[C@H]1Cc2ccccc2CN1)C(=O)N[C@@H](CC1CCCCC1)[C@@H](O)[C@@H](O)CC(C)C` had a negative-log IC50 (pIC50) of 6.43. `CC(C)C[C@H](O)[C@H](O)[C@H](CC1CCCCC1)NC(=O)CNC(=O)[C@@H]1Cc2ccccc2CN1S(=O)(=O)N1CCOCC1` gave a pIC50 of 7.00. Same read-out and setting: under `C=CC[C@H](NC(=O)[C@@H]1Cc2ccccc2CN1C(=O)OC(C)(C)C)C(=O)N[C@@H](CC1CCCCC1)[C@@H](O)[C@@H](O)CC(C)C` stands 6.84.

`C=CC[C@H](NC(=O)[C@H]1Cc2ccccc2CN1C(=O)OC(C)(C)C)C(=O)N[C@@H](CC1CCCCC1)[C@@H](O)[C@@H](O)CC(C)C` showed a pIC50 of 6.49. The same measure, in the same setting: under `C=CC[C@H](NC(=O)[C@@H]1Cc2ccccc2CN1S(=O)(=O)N1CCOCC1)C(=O)N[C@@H](CC1CCCCC1)[C@@H](O)[C@@H](O)CC(C)C` stands 8.54; under `C=CC[C@H](NC(=O)[C@@H]1Cc2ccccc2CN1)C(=O)N[C@@H](CC1CCCCC1)[C@@H](O)[C@@H](O)CC(C)C`, 7.94.
